Results published in patent publication US11214594B2, “Antimicrobial peptide having synergistic antibacterial effect with antibiotics on multidrug resistant bacteria, and use thereof” (priority 2016, dated 2022).
Converted amounts (≈) assume the structure as drawn. Where a SMILES comes first, the peptide text is derived from it. [ ]: non-standard residue; d: D form.

Legend:
[1] = tested on: MDRST 8007; experiment: Minimal inhibitory concentration (MIC), single agent; assay type: cell-based, Salmonella typhimurium; conditions: agent alone
Outline: (§1)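 Each strain is brought to 2×10^6 CFU in nutrient-sufficient Mueller-Hinton medium and dispensed into wells. Peptide solutions, stepwise diluted 2:1 in the same medium, are then added. The minimal concentration preventing growth gives the MIC.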

[2] = tested on: MDRAB 12036; assay type: cell-based, Acinetobacter baumannii
Outline: as §1

[3] = tested on: MDRPA 2002; assay type: cell-based, Pseudomonas aeruginosa
Outline: as §1

[4] = tested on: MDRPA 2003; assay type: cell-based, Pseudomonas aeruginosa
Outline: as §1

[5] = tested on: S. aureus; experiment: microbe, parasite or virus in culture; assay type: cell-based, Staphylococcus aureus
Outline: as §1

[6] = tested on: MDREC 1238; assay type: cell-based, Escherichia coli
Outline: as §1

[7] = tested on: MDRAB 12035; experiment: microbe, parasite or virus in culture; assay type: cell-based, Acinetobacter baumannii
Outline: as §1

[8] = tested on: A. baumannii; experiment: microbe, parasite or virus in culture; assay type: cell-based, Acinetobacter baumannii; conditions: for Antibacterial activity relative to PapMA-1: A. baumannii and S. typhimurium
Outline: as §1

[9] = tested on: multi-drug resistant bacteria; experiment: MIC, summary statements for multi-drug resistant bacteria; assay type: cell-based
Experimental: For the antibacterial activity, a minimal inhibitory concentration (MIC) of a peptide in which fungus bodies were not split in an MH medium with sufficient nutrients was measured.
Specifically, the strains described in the following [Table 2] were purchased and diluted with an MH medium such that the number of bacteria was 2×10^6 colony-forming units (CFUs), 100 μl of each of the diluted strains was aliquoted into a 96-well microtiter plate, and then 100 μl of a peptide solution diluted with the MH medium (solution diluted stepwise at 2: 1) was added to each well.

[10] = tested on: MDRAB 12035; experiment: MIC of antibiotic during combined treatment with antimicrobial peptide; assay type: cell-based, Acinetobacter baumannii
Outline: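 Antibiotic MIC came from antibiotic dilutions added to bacteria (2×10^6 CFU/ml, MH medium) already combined with peptide serially diluted 2:1 from its own MIC. Swapping the roles of the two agents gave the peptide MIC.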

[11] = tested on: S. typhimurium; experiment: microbe, parasite or virus in culture; assay type: cell-based, Salmonella typhimurium
Outline: as §1

[12] = tested on: MRSA 3126; assay type: cell-based, Staphylococcus aureus; conditions: 3126
Outline: as §1

[13] = tested on: MRSA 3114; assay type: cell-based, Staphylococcus aureus; conditions: 3114
Outline: as §1

[14] = peptide treatment concentration 1 μg/ml
[15] = peptide treatment concentration 2 μg/ml
[16] = peptide treatment concentration 4 μg/ml
[17] = peptide treatment concentration 6 μg/ml
[18] = peptide treatment concentration 8 μg/ml
[19] = peptide treatment concentration 16 μg/ml
[20] = peptide treatment concentration 32 μg/ml
[21] = peptide treatment concentration 64 μg/ml

SMILES | Minimal inhibitory concentration MIC [1] | Minimal inhibitory concentration MIC [2] | Minimal inhibitory concentration MIC [3] | Minimal inhibitory concentration MIC [4] | Minimal inhibitory concentration MIC [5] | Minimal inhibitory concentration MIC [6] | Minimal inhibitory concentration MIC [7] | Peptide MIC, peptide alone [7] | Minimal inhibitory concentration MIC [8] | Peptide MIC, peptide alone [8] | Antibacterial activity relative to PapMA-1 [8] | Antibacterial activity relative to PapMA-1 [9] | Erythromycin MIC during combined treatment with peptide [10, 14] | Linezolid MIC during combined treatment with peptide [10, 14] | Vancomycin MIC during combined treatment with peptide [10, 14] | Erythromycin MIC during combined treatment with peptide [10, 15] | Linezolid MIC during combined treatment with peptide [10, 15] | Vancomycin MIC during combined treatment with peptide [10, 15] | Erythromycin MIC during combined treatment with peptide [10, 16] | Linezolid MIC during combined treatment with peptide [10, 16] | also measured
CC[C@H](C)[C@H](NC(=O)[C@H](CCCCN)NC(=O)[C@H](Cc1c[nH]c2ccccc12)NC(=O)[C@@H](N)CCCNC(=N)N)C(=O)N[C@@H](Cc1ccccc1)C(=O)N[C@@H](CCCCN)C(=O)N[C@@H](CCCCN)C(=O)N[C@H](C(=O)N[C@H](CCCCN)C(=O)N[C@@H](CCCCN)C(=O)N[C@@H](CC(C)C)C(=O)N[C@@H](CC(C)C)C(=O)N[C@@H](Cc1c[nH]cn1)C(=O)N[C@@H](CCCCN)C(=O)N[C@@H](Cc1ccccc1)C(=O)N[C@@H](CCCCN)C(=O)N[C@@H](CCCCN)C(=O)N[C@@H](Cc1ccccc1)C(N)=O)[C@@H](C)CC [PapMA-17, RWK IFK KIk KLL HKF KKF-NH2] (H-RWKIFKKI[dK]KLLHKFKKF-NH2; N-terminus assumed) | 64 µg/mL (≈ 26.5 µM) | 32 µg/mL (≈ 13.2 µM) | 16 µg/mL (≈ 6.62 µM) | 16 µg/mL (≈ 6.62 µM) | >128 µg/mL | 32 µg/mL (≈ 13.2 µM) | 32 µg/mL (≈ 13.2 µM) | 32 µg/mL | 32 µg/mL (≈ 13.2 µM) | 32 µg/mL | at least twice as high | twice to four times higher | 32 µg/mL | >128 µg/mL | >128 µg/mL | 16 µg/mL | 128 µg/mL | >128 µg/mL | 8 µg/mL | 32 µg/mL | Vancomycin MIC during combined treatment with peptide [10, 16]: 128 µg/mL; Erythromycin MIC during combined treatment with peptide [10, 17]: 4 µg/mL; Linezolid MIC during combined treatment with peptide [10, 17]: 32 µg/mL; Vancomycin MIC during combined treatment with peptide [10, 17]: 32 µg/mL; Erythromycin MIC during combined treatment with peptide [10, 18]: 0.5 µg/mL; Linezolid MIC during combined treatment with peptide [10, 18]: 16 µg/mL; Vancomycin MIC during combined treatment with peptide [10, 18]: 16 µg/mL; Erythromycin MIC during combined treatment with peptide [10, 19]: 0.25 µg/mL; Linezolid MIC during combined treatment with peptide [10, 19]: 4 µg/mL; Vancomycin MIC during combined treatment with peptide [10, 19]: 8 µg/mL; Erythromycin MIC during combined treatment with peptide [10, 20]: 0 µg/mL; Linezolid MIC during combined treatment with peptide [10, 20]: 0 µg/mL; Vancomycin MIC during combined treatment with peptide [10, 20]: 0 µg/mL; Erythromycin MIC during combined treatment with peptide [10, 21]: 0 µg/mL; Linezolid MIC during combined treatment with peptide [10, 21]: 0 µg/mL; Vancomycin MIC during combined treatment with peptide [10, 21]: 0 µg/mL; Minimal inhibitory concentration MIC [11]: 32 µg/mL (≈ 13.2 µM); Minimal inhibitory concentration MIC [12]: >128 µg/mL; Minimal inhibitory concentration MIC [13]: >128 µg/mL
CC[C@H](C)[C@H](NC(=O)[C@H](CCCCN)NC(=O)[C@H](Cc1c[nH]c2ccccc12)NC(=O)[C@@H](N)CCCNC(=N)N)C(=O)N[C@@H](Cc1ccccc1)C(=O)N[C@@H](CCCCN)C(=O)N[C@@H](CCCCN)C(=O)N[C@H](C(=O)N[C@H](CC(C)C)C(=O)N[C@@H](CCCCN)C(=O)N[C@@H](CC(C)C)C(=O)N[C@@H](CC(C)C)C(=O)N[C@@H](Cc1c[nH]cn1)C(=O)N[C@@H](CCC(=O)O)C(=O)N[C@@H](Cc1ccccc1)C(=O)N[C@@H](CCCCN)C(=O)N[C@@H](CCCCN)C(=O)N[C@@H](Cc1ccccc1)C(N)=O)[C@@H](C)CC [PapMA-23, RWK IFK KIl KLL HEF KKF-NH2] (H-RWKIFKKI[dL]KLLHEFKKF-NH2; N-terminus assumed) | 64 µg/mL (≈ 26.6 µM) | 32 µg/mL (≈ 13.3 µM) | 64 µg/mL (≈ 26.6 µM) | 64 µg/mL (≈ 26.6 µM) | >128 µg/mL | 32 µg/mL (≈ 13.3 µM) | 32 µg/mL (≈ 13.3 µM) | 32 µg/mL | 32 µg/mL (≈ 13.3 µM) | 32 µg/mL | at least twice as high | twice to four times higher | 32 µg/mL | >128 µg/mL | >128 µg/mL | 32 µg/mL | >128 µg/mL | >128 µg/mL | 16 µg/mL | 64 µg/mL | Vancomycin MIC during combined treatment with peptide [10, 16]: 128 µg/mL; Erythromycin MIC during combined treatment with peptide [10, 17]: 4 µg/mL; Linezolid MIC during combined treatment with peptide [10, 17]: 32 µg/mL; Vancomycin MIC during combined treatment with peptide [10, 17]: 32 µg/mL; Erythromycin MIC during combined treatment with peptide [10, 18]: 1 µg/mL; Linezolid MIC during combined treatment with peptide [10, 18]: 16 µg/mL; Vancomycin MIC during combined treatment with peptide [10, 18]: 16 µg/mL; Erythromycin MIC during combined treatment with peptide [10, 19]: 0.25 µg/mL; Linezolid MIC during combined treatment with peptide [10, 19]: 4 µg/mL; Vancomycin MIC during combined treatment with peptide [10, 19]: 8 µg/mL; Erythromycin MIC during combined treatment with peptide [10, 20]: 0 µg/mL; Linezolid MIC during combined treatment with peptide [10, 20]: 0 µg/mL; Vancomycin MIC during combined treatment with peptide [10, 20]: 0 µg/mL; Erythromycin MIC during combined treatment with peptide [10, 21]: 0 µg/mL; Linezolid MIC during combined treatment with peptide [10, 21]: 0 µg/mL; Vancomycin MIC during combined treatment with peptide [10, 21]: 0 µg/mL; Minimal inhibitory concentration MIC [11]: 32 µg/mL (≈ 13.3 µM); Minimal inhibitory concentration MIC [12]: >128 µg/mL; Minimal inhibitory concentration MIC [13]: >128 µg/mL
